Legend:
Format in all cases: biochemical
Human Calpain 1/NS1 = target: T1, Human Calpain 1/NS1 (Homo sapiens, UniProt P07384); test: Calpain inhibition continuous fluorescence (FRET) assay, Human Calpain 1/NS1; conditions: Column A; read-out: Human Calpain 1/NS1 IC50
T1 sequence (P07384 1-714): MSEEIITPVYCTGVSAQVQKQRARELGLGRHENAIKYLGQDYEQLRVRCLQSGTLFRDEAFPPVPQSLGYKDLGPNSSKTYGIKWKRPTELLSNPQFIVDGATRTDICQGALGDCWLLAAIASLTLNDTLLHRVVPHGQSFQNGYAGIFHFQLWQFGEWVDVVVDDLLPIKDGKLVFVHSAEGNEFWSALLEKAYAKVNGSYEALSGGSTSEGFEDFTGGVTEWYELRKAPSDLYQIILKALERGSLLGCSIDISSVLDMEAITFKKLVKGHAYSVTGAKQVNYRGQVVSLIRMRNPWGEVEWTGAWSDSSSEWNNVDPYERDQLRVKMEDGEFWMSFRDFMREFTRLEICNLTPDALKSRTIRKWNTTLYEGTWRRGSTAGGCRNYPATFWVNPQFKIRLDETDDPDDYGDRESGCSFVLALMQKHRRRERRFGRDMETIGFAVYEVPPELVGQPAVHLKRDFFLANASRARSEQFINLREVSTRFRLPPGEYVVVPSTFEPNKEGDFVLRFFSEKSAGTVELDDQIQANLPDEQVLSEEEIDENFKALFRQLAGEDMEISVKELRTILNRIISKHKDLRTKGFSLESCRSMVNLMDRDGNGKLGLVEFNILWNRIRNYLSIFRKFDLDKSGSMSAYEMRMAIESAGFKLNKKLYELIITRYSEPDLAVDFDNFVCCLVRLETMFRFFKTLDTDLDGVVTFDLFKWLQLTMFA
T1 sequence (P04632 1-268 partner): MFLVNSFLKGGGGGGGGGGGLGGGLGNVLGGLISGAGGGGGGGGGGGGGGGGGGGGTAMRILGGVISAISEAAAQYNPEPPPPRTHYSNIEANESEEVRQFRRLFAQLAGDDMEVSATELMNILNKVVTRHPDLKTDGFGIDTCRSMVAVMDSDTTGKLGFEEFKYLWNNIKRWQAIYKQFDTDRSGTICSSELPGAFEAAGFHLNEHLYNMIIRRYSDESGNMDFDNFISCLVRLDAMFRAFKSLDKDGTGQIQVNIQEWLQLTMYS
Procedure, shortened: (§1)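 Human calpains 1, 2 and 9 preincubated with inhibitor at 25 °C in 50 mM Tris pH 7.5, 100 mM NaCl, 1 mM DTT; reaction started with 5-FAM/QXL 520 FRET peptide plus CaCl2 for activation. Fluorescence (490/520 nm) followed 10 min; rates from 1-5 min slopes fitted to 4-parameter logistic for IC50.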

Human Calpain 2/NS1 = target: T2, Human Calpain 2/NS1 (Homo sapiens, UniProt P17655); test: Calpain inhibition continuous fluorescence (FRET) assay, Human Calpain 2/NS1; conditions: Column B; read-out: Human Calpain 2/NS1 IC50
T2 sequence (P17655 1-700): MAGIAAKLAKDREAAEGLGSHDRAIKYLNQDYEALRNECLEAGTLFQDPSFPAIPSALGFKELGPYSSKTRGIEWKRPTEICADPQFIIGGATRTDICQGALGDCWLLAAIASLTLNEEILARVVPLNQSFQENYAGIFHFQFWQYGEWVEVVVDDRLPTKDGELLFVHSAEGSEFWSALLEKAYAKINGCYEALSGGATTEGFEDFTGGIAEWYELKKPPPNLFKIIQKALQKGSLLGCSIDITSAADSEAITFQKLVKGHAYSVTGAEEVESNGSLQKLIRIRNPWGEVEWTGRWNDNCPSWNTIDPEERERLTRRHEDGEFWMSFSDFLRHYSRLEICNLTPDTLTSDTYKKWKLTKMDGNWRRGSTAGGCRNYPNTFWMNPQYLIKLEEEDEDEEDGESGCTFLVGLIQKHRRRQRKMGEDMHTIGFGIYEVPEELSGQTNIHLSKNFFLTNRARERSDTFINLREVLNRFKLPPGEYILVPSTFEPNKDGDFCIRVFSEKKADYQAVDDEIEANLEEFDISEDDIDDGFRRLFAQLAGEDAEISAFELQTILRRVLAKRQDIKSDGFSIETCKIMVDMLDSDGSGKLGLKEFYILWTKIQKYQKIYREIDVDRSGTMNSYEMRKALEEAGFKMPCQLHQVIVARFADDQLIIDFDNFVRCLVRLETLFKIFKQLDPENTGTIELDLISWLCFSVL
T2 sequence (P04632 1-268 partner): T1 sequence (P04632 1-268 partner)
Procedure, shortened: as §1

Human Calpain 9/NS1 = target: T3, Human Calpain 9/NS1 (Homo sapiens, UniProt O14815); test: Calpain inhibition continuous fluorescence (FRET) assay, Human Calpain 9/NS1; conditions: Column C; read-out: Human Calpain 9/NS1 IC50
T3 sequence (O14815 1-690): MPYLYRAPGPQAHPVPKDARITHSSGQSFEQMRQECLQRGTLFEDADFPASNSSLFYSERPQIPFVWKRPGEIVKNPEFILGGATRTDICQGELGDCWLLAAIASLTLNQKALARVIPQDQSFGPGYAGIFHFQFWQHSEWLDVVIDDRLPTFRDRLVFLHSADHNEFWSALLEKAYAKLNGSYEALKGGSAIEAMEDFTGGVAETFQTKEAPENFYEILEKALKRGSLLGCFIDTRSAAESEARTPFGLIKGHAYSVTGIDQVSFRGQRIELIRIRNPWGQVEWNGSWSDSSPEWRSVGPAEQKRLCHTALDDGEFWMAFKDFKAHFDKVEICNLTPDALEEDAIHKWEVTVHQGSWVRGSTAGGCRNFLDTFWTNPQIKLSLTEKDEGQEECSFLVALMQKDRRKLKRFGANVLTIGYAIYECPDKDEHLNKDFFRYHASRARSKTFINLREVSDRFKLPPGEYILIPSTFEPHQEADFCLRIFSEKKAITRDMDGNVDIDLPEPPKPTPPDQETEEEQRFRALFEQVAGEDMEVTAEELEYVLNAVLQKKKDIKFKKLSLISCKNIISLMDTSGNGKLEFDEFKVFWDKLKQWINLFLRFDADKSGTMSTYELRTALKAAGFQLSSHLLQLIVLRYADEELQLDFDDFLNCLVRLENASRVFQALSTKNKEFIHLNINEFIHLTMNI
T3 sequence (P04632 1-268 partner): T1 sequence (P04632 1-268 partner)
Procedure, shortened: as §1

SMILES | IC50 (Human Calpain 1/NS1) | IC50 (Human Calpain 2/NS1) | IC50 (Human Calpain 9/NS1)
Cn1nnc(C(=O)N[C@@H](Cc2ccccc2)C(=O)C(N)=O)c1-c1ccccc1 [Compound 260, (S)—N-(4-amino-3,4-dioxo-1-phenylbutan-2-yl)-1-methyl-5-phenyl-1H-1,2,3-triazole-4-carboxamide] | < 3 µM | < 3 µM | < 3 µM
Cn1nnc(-c2ccccc2)c1C(=O)N[C@@H](Cc1ccccc1)C(=O)C(N)=O [Compound 261, (S)—N-(4-amino-3,4-dioxo-1-phenylbutan-2-yl)-1-methyl-4-phenyl-1H-1,2,3-triazole-5-carboxamide] | < 3 µM | < 3 µM | < 3 µM
NC(=O)C(=O)[C@H](Cc1ccccc1)NC(=O)c1nn[nH]c1-c1ccccc1 [Compound 262, (S)—N-(4-amino-3,4-dioxo-1-phenylbutan-2-yl)-5-phenyl-1H-1,2,3-triazole-4-carboxamide] | 3 to 10 µM | 3 to 10 µM | < 3 µM
NC(=O)C(=O)[C@H](Cc1ccccc1)NC(=O)c1cnnn1-c1ccccc1 [Compound 263, (S)—N-(4-amino-3,4-dioxo-1-phenylbutan-2-yl)-1-phenyl-1H-1,2,3-triazole-5-carboxamide] | < 3 µM | < 3 µM | < 3 µM
Cc1cc(C(=O)N[C@@H](Cc2ccccc2)C(=O)C(N)=O)nn1-c1nc2ccccc2[nH]1 [Compound 264, (S)—N-(4-amino-3,4-dioxo-1-phenylbutan-2-yl)-1-(1H-benzo[d]imidazol-2-yl)-5-methyl-1H-pyrazole-3-carboxamide] | 3 to 10 µM | 3 to 10 µM | > 10 µM
Cn1cnc(C(=O)N[C@@H](Cc2ccccc2)C(=O)C(N)=O)c1-c1ccccc1 [Compound 269, (S)—N-(4-amino-3,4-dioxo-1-phenylbutan-2-yl)-1-methyl-5-phenyl-1H-imidazole-4-carboxamide] | 3 to 10 µM | 3 to 10 µM | < 3 µM
NC(=O)C(=O)[C@H](Cc1ccccc1)NC(=O)c1ccsc1-c1ccccc1 [Compound 270, (S)—N-(4-amino-3,4-dioxo-1-phenylbutan-2-yl)-2-phenylthiophene-3-carboxamide] | < 3 µM | < 3 µM | < 3 µM
N#Cc1cc(C(=O)N[C@@H](Cc2ccccc2)C(=O)C(N)=O)n(-c2ccccc2)n1 [Compound 272, (S)—N-(4-amino-3,4-dioxo-1-phenylbutan-2-yl)-3-cyano-1-phenyl-1H-pyrazole-5-carboxamide] | > 10 µM | 3 to 10 µM | 3 to 10 µM

Second part, the compound after the results:

IC50 (Human Calpain 1/NS1) | IC50 (Human Calpain 2/NS1) | IC50 (Human Calpain 9/NS1) | SMILES
> 10 µM | < 3 µM | < 3 µM | N#Cc1cc(C(=O)N[C@@H](Cc2ccccc2)C(=O)C(N)=O)nn1-c1ccccc1 [Compound 273, (S)—N-(4-amino-3,4-dioxo-1-phenylbutan-2-yl)-5-cyano-1-phenyl-1H-pyrazole-3-carboxamide]
< 3 µM | < 3 µM | < 3 µM | Cn1nc(Br)c(C(=O)NC(Cc2ccccc2)C(=O)C(N)=O)c1Cl (stereo not drawn) [Compound 274, N-(4-amino-3,4-dioxo-1-phenylbutan-2-yl)-3-bromo-5-chloro-1-methyl-1H-pyrazole-4-carboxamide]
< 3 µM | < 3 µM | < 3 µM | NC(=O)C(=O)C(Cc1ccccc1)NC(=O)c1c(Cl)cnn1-c1ccccc1 (stereo not drawn) [Compound 280, N-(4-amino-3,4-dioxo-1-phenylbutan-2-yl)-4-chloro-1-phenyl-1H-pyrazole-5-carboxamide]
< 3 µM | < 3 µM | < 3 µM | NC(=O)C(=O)C(Cc1ccccc1)NC(=O)c1ccnn1Cc1ccccc1 (stereo not drawn) [Compound 283, N-(4-amino-3,4-dioxo-1-phenylbutan-2-yl)-1-benzyl-1H-pyrazole-5-carboxamide]
> 10 µM | > 10 µM | > 10 µM | NC(=O)C(=O)C(Cc1ccccc1)NC(=O)c1ccn(Cc2ccccc2)n1 (stereo not drawn) [Compound 284, N-(4-amino-3,4-dioxo-1-phenylbutan-2-yl)-1-benzyl-1H-pyrazole-3-carboxamide]
< 3 µM | 3 to 10 µM | < 3 µM | Cc1nc(-c2cccc(C(F)(F)F)n2)c(C(=O)NC(Cc2ccccc2)C(=O)C(N)=O)o1 (stereo not drawn) [Compound 287]
< 3 µM | < 3 µM | < 3 µM | Cc1ncn(-c2ccccc2)c1C(=O)N[C@@H](Cc1ccccc1)C(=O)C(N)=O [Compound 290, (S)—N-(4-amino-3,4-dioxo-1-phenylbutan-2-yl)-4-methyl-1-phenyl-1H-imidazole-5-carboxamide]
< 3 µM | < 3 µM | < 3 µM | NC(=O)C(=O)[C@H](Cc1ccccc1)NC(=O)c1c(Cl)ncn1-c1ccccc1 [Compound 291, (S)—N-(4-amino-3,4-dioxo-1-phenylbutan-2-yl)-4-chloro-1-phenyl-1H-imidazole-5-carboxamide]
> 10 µM | > 10 µM | > 10 µM | Cc1cc(C(=O)N[C@@H](Cc2ccccc2)C(=O)C(=O)NC2CC2)n(-c2nc3ccccc3n2C)n1 [Compound 295, (S)—N-(4-(cyclopropylamino)-3,4-dioxo-1-phenylbutan-2-yl)-3-methyl-1-(1-methyl-1H-benzo[d]imidazol-2-yl)-1H-pyrazole-5-carboxamide]
> 10 µM | 3 to 10 µM | < 3 µM | COc1ccc2nc(-n3nc(C)cc3C(=O)N[C@@H](Cc3ccccc3)C(=O)C(N)=O)sc2c1 [Compound 297, (S)—N-(4-amino-3,4-dioxo-1-phenylbutan-2-yl)-1-(6-methoxybenzo[d]thiazol-2-yl)-3-methyl-1H-pyrazole-5-carboxamide]
> 10 µM | > 10 µM | > 10 µM | Cc1cc(C(=O)N[C@@H](Cc2ccccc2)C(=O)C(N)=O)n(-c2nc3c(C)cccc3s2)n1 [Compound 298, (S)—N-(4-amino-3,4-dioxo-1-phenylbutan-2-yl)-3-methyl-1-(4-methylbenzo[d]thiazol-2-yl)-1H-pyrazole-5-carboxamide]

Source: patent US11339130B1 (Blade Therapeutics, Inc., priority 2016, dated 2022)
